What was measured:
washed human platelets = experiment: Aggregation of washed human platelets elicited by thrombin or U46619 (aggregometer); type: cell-based; conditions: 5 minutes; for effect of pre-treatment with arginase inhibitor on arginine-mediated inhibition of platelet aggregation: pre-incubation with inhibitor (Nor-NOHA 100 µmol/L, 30 minutes), then arginine 1 mmol/L, thrombin or U46619; for thrombin or thromboxane A2 analogue-induced aggregation of platelets: arginine 1 mmol/L, alone
Excerpt: (§1) Levels of ornithine (A), arginine (B), and the ratio of ornithine to arginine (C) in plasma from healthy donors or from PCOS patients, n= 22 (Student's t test). (D) Arginase activity in plasma from healthy donors or from PCOS patients, n=16 (Student's t test). (E) Levels of arginase-i in plasma from healthy donors or from PCOS patients, n=16 (Student's t test). (F) Levels of arginase-i in plasma from healthy donors or from PCOS patients in the presence or in the absence of microparticles, n=16 (ANOVA and Newman-Keuls post-test). (G) Levels of platelet-derived microparticles (PMPs) in plasma from healthy donors or from PCOS patients, n=17 (Student's t test). (H) Levels of arginase-i measured by flow cytometry in PMPs from healthy donors and from PCOS patients, n=17.
Human platelets were obtained by centrifugation (900g, 7 minutes) of platelet-rich plasma, as described. […] The resulting platelet-poor plasma was collected and frozen at -80°C for further evaluation.
Platelet aggregation. Aggregation of washed human platelets (4x10^8platelets/mL) was measured using an 8-channel aggregometer (PAP8, Mölab, Germany).

arginase = experiment: Arginase activity in platelets incubated with arginase inhibitor, then lysed (MAK112 kit); type: cell-based, human; conditions: 30 minutes, P<0.05
Excerpt: as §1, with “n=17. […]” for “n=17.”
Given that platelets are the main source of plasma arginase in PCOS patients, the effect of arginase inhibitor on platelet arginase activity and function was assessed. […]
Arginase activity was determined in plasma or in platelets using commercially available kits (MAK112, Sigma, Steinheim, Germany), according to manufacturer's instructions.

Row | Compound | effect of pre-treatment with arginase inhibitor on arginine-mediated inhibition of platelet aggregation (washed human platelets; platelets from PCOS patients) | effect of pre-treatment with arginase inhibitor on arginine-mediated inhibition of platelet aggregation (washed human platelets; platelets from healthy donors) | arginase activity (arginase; platelets incubated with nor-NOHA 100 µmol/L) | thrombin or thromboxane A2 analogue-induced aggregation of platelets (washed human platelets; platelets from PCOS patients) | thrombin or thromboxane A2 analogue-induced aggregation of platelets (washed human platelets; platelets from healthy donors) | arginase activity (arginase; platelets incubated with L-norvaline 10 mmol/L)
1 | N=C(NO)NCC[C@H](N)C(=O)O [NorNOHA, Nω-hydroxy-nor-L-arginine] | significantly revealed the inhibitory effects of arginine | did not have additional effect on arginine-mediated platelet inhibition | significantly inhibited arginase activity |  |  | 
2 | N=C(N)NCCC[C@H](N)C(=O)O [arginine] |  |  |  | did not affect the aggregation | inhibited thrombin or thromboxane A2 analogue-induced aggregation | 
3 | CCC[C@H](N)C(=O)O [L-norvaline] | significantly revealed the inhibitory effects of arginine | did not have additional effect on arginine-mediated platelet inhibition |  |  |  | significantly inhibited arginase activity
